Read-outs that look alike come from different tables or passages of the source.
What was measured:
glioblastoma SNB-19 = test: WST-1 cell proliferation assay, SNB-19; format: cell-based, human; settings: SNB-19, WST-1, 72 h, read-out: Anticancer Activity IC50 SNB-19
Experimental: (§1) Encouraged by our previous promising results in the field of antiproliferative activity of dipyridothiazines as well as by the good anticancer activity of the 1,2,3-triazoles, we decided to combine the biological potentials of dipyridothiazines and triazole moieties, hoping to obtain compounds with better activity. The antiproliferative activity of all 20 new 10-substituted 1,2,3-triazole derivatives of dipyridothiazines was tested in vitro against cancer cell lines: glioblastoma SNB-19, colorectal carcinoma Caco-2, lung cancer A549, and breast cancer MDA-MB231 using the WST-1 assay. Normal human fibroblasts NHDF were used as a control.
(§2) All dipyridothiazines with 1,2,3-triazole substituents (1–4)b–f were evaluated for their anticancer activity using four cultured cell lines: SNB-19 (human glioblastoma, DSMZ—German Collection of Microorganisms and Cell Cultures, Braunschweig, Germany), Caco-2 (human colon adenocarcinoma, DSMZ—German Collection of Microorganisms and Cell Cultures, Braunschweig, Germany), A549 (human lung carcinoma, ATCC, Manassas, VA, USA) and MDA-MB231 (human breast adenocarcinoma, ATCC, Manassas, VA, USA), and NHDF (human dermal fibroblast cell line, ATCC, Manassas, VA, USA. The cultured cells were kept at 37 °C and 5% CO2. The cells were seeded (1 × 10^4 cells/well/100 µL DMEM supplemented with 10% FCS and streptomycin and penicillin) using 96-well plates (Corning). The cells were counted in a hemocytometer (Burker’s chamber) using a phase contrast Olympus IX50 microscope equipped with Sony SSC-DC58 AP camera and Olympus DP10 digital camera.
(§3) Antiproliferative effect of the obtained compounds on the cancer cells was determined using the cell proliferation reagent WST-1 assay (Roche Diagnostics, Mannheim, Germany). This assay is based on the viable cell’s ability to cleave the bright red-colored tetrazolium salt (2-(4-iodophenyl)-3-(4-nitrophenyl)-5-(2,4-disulfophenyl)-2H-tetrazolium, monosodium salt) to dark red soluble formazan by cellular enzymes. An increase in the amount of formazan dye formed correlates to the number of metabolically active cells in the culture. The formazan dye produced by metabolically active cells is quantified by a scanning ELISA reader by measuring the absorbance of the dye solution at appropriate wavelengths. The examined cells were exposed to the tested compounds for 72 h at various concentrations between 0.1 μg/mL and 100 μg/mL (prepared initially at concentration of 1 mg/mL in DMSO). The cells were incubated with WST-1 (10 μL) for 1 h and the absorbance of the samples against a background control was measured at 450 nm using a microplate reader with a reference wavelength at 600 nm. The results are expressed as means of at least two independent experiments performed in triplicate.

[1] = test system: colorectal carcinoma Caco-2; test: WST-1 cell proliferation assay, Caco-2; format: cell-based; settings: Homo sapiens; Caco-2, WST-1, 72 h; read-out: Anticancer Activity IC50 Caco-2
Experimental: (§4) The antiproliferative activity of all 20 new 10-substituted 1,2,3-triazole derivatives of dipyridothiazines was tested in vitro against cancer cell lines: glioblastoma SNB-19, colorectal carcinoma Caco-2, lung cancer A549, and breast cancer MDA-MB231 using the WST-1 assay. Normal human fibroblasts NHDF were used as a control.
as §2, §3

lung cancer A549 = test: WST-1 cell proliferation assay, A549; format: cell-based, human; settings: A549, WST-1, 72 h, read-out: Anticancer Activity IC50 A549
Experimental: as §1, §2, §3

breast cancer MDA-MB231 = test: WST-1 cell proliferation assay, MDA-MB231; format: cell-based, human; settings: MDA-MB231, WST-1, 72 h, read-out: Anticancer Activity IC50 MDA-MB231
Experimental: as §1, §2, §3

[2] = test system: normal human fibroblasts NHDF; test: WST-1 cytotoxicity assay, normal fibroblasts NHDF; format: cell-based; settings: normal human fibroblasts NHDF, WST-1, 72 h
Experimental: as §1, §2, §3

[3] = test system: SNB-19, Caco-2, A549 and MDA-MB231 cancer cell lines; test: WST-1 assay, summary over the cancer cell line panel; format: cell-based, human; settings: for IC50: Homo sapiens
Experimental: as §4, §2, §3

[4] = span over SNB-19, Caco-2, A549, MDA-MB231, read-out: IC50 across all investigated cancer cell lines

| Structure (SMILES) | IC50 (glioblastoma SNB-19; Homo sapiens) | IC50 [1] | IC50 (lung cancer A549; Homo sapiens) | IC50 (breast cancer MDA-MB231; Homo sapiens, MDA-MB-231) | IC50 [2] | IC50 ([3]; span over SNB-19 and MDA-MB231, read-out: IC50 in relation to SNB-19 and MDA-MB231 cell lines) | IC50 [3, 4] | selectivity among cancer cell lines (in words) ([3]; four cancer cell lines) | IC50 (glioblastoma SNB-19) | IC50 (lung cancer A549) | IC50 (breast cancer MDA-MB231) |
| --- | --- | --- | --- | --- | --- | --- | --- | --- | --- | --- | --- |
| c1ccc(Cn2cc(CN3c4cccnc4Sc4cccnc43)nn2)cc1 [1b, 10-[(1-Benzyl-1H-1,2,3-triazol-4-yl)-methyl]-1,6-diazaphenothiazine] | 69.2 µM | 19.9 ± 2.71 µM | > 100 µM | 13.7 µM | > 100 µM |  |  |  |  |  |  |
| Fc1ccc(Cn2cc(CN3c4cccnc4Sc4cccnc43)nn2)cc1 [1c, 10-[(1-(4-Fluorobenzyl)-1H-1,2,3-triazol-4-yl)methyl]-1,6-diazaphenothiazine] | 5.72 µM | 8.1 µM | 29.1 µM | 7.82 µM | > 100 µM | 5.72 to 7.82 µM |  |  |  |  |  |
| N#Cc1ccc(Cn2cc(CN3c4cccnc4Sc4cccnc43)nn2)cc1 [1e, 10-[(1-(4-Cyanobenzyl)-1H-1,2,3-triazol-4-yl)methyl]-1,6-diazaphenothiazine] | 9.65 µM | 79.7 µM | 1.79 µM | 25.8 µM | > 100 µM |  |  |  |  |  |  |
| c1ccc(SCn2cc(CN3c4cccnc4Sc4cccnc43)nn2)cc1 [1f, 10-[(1-Phenylthiomethyl-1H-1,2,3-triazolo-4-ylo)methyl]-1,6-diazaphenothiazine] | > 100 µM | > 100 µM | > 100 µM | 68.7 µM | > 100 µM |  |  |  |  |  |  |
| c1ccc(Cn2cc(CN3c4cnccc4Sc4cccnc43)nn2)cc1 [2b, 10-[(1-Benzyl-1H-1,2,3-triazol-4-yl)-methyl]-1,8-diazaphenothiazine] | 41.9 µM | > 100 µM | 77.4 µM | 56.3 µM | > 100 µM |  |  |  |  |  |  |
| Fc1ccc(Cn2cc(CN3c4cnccc4Sc4cccnc43)nn2)cc1 [2c, 10-[(1-(4-Fluorobenzyl)-1H-1,2,3-triazol-4-yl)methyl]-1,8-diazaphenothiazine] | 55.2 µM | 43.6 µM | 60.2 µM | 9.21 µM | > 100 µM |  |  |  |  |  |  |
| Clc1ccc(Cn2cc(CN3c4cnccc4Sc4cccnc43)nn2)cc1 [2d, 10-[(1-(4-Chlorobenzyl)-1H-1,2,3-triazol-4-yl)methyl]-1,8-diazaphenothiazine] | 59.9 µM | 11.4 µM | 1.82 µM | 4.71 µM | 43 µM |  |  |  |  |  |  |
| N#Cc1ccc(Cn2cc(CN3c4cnccc4Sc4cccnc43)nn2)cc1 [2e, 10-[(1-(4-Cyanobenzyl)-1H-1,2,3-triazol-4-yl)methyl]-1,8-diazaphenothiazine] | 10.6 µM | 34.4 µM | 63.8 µM | 12 µM | > 100 µM |  |  |  |  |  |  |
| c1ccc(SCn2cc(CN3c4cnccc4Sc4cccnc43)nn2)cc1 [2f, 10-[(1-Phenylthiomethyl-1H-1,2,3-triazolo-4-ylo)methyl]-1,8-diazaphenothiazine] | 56.3 µM | 32.5 µM | 46.8 µM | 12 µM | > 100 µM |  |  |  |  |  |  |
| c1ccc(Cn2cc(CN3c4ccncc4Sc4ccncc43)nn2)cc1 [3b, 10-[(1-Benzyl-1H-1,2,3-triazol-4-yl)-methyl]-2,7-diazaphenothiazine] | 2.04 µM | 0.26 µM | 0.26 µM | 0.77 µM | 22.7 µM |  | 0.26 to 2.07 µM |  |  |  |  |
| Fc1ccc(Cn2cc(CN3c4ccncc4Sc4ccncc43)nn2)cc1 [3c, 10-[(1-(4-Fluorobenzyl)-1H-1,2,3-triazol-4-yl)methyl]-2,7-diazaphenothiazine] | 57.9 µM | 29.9 µM | 27.2 µM | 25.7 µM | 70.6 µM |  |  |  |  |  |  |
| Clc1ccc(Cn2cc(CN3c4ccncc4Sc4ccncc43)nn2)cc1 [3d, 10-[(1-(4-Chlorobenzyl)-1H-1,2,3-triazol-4-yl)methyl]-2,7-diazaphenothiazine] | 31.3 µM | 33.1 µM | 17.9 µM | 4.26 µM | > 100 µM |  |  |  |  |  |  |
| N#Cc1ccc(Cn2cc(CN3c4ccncc4Sc4ccncc43)nn2)cc1 [3e, 10-[(1-(4-Cyanobenzyl)-1H-1,2,3-triazol-4-yl)methyl]-2,7-diazaphenothiazine] | 26.8 µM | 10 µM | 30.1 µM | 3.5 µM | 49.5 µM |  |  |  |  |  |  |
| c1ccc(SCn2cc(CN3c4ccncc4Sc4ccncc43)nn2)cc1 [3f, 10-[(1-Phenylthiomethyl-1H-1,2,3-triazolo-4-ylo)methyl]-2,7-diazaphenothiazine] | 32.6 µM | 14.5 µM | 0.65 µM | 0.64 µM | 52.9 µM |  |  | acted selectively towards A549 and MDA-MB231 cell lines |  |  |  |
| c1ccc(Cn2cc(CN3c4ccncc4Sc4ncccc43)nn2)cc1 [4b, 10-[(1-Benzyl-1H-1,2,3-triazol-4-yl)-methyl]-3,6-diazaphenothiazine] | 20.8 µM | 57.9 µM | 60.6 µM | 7.87 µM | > 100 µM |  |  |  |  |  |  |
| Fc1ccc(Cn2cc(CN3c4ccncc4Sc4ncccc43)nn2)cc1 [4c, 10-[(1-(4-Fluorobenzyl)-1H-1,2,3-triazol-4-yl)methyl]-3,6-diazaphenothiazine] | 6.25 µM | 0.25 µM | 0.25 µM | 1.97 µM | 2.85 µM |  | 0.25 to 6.25 µM |  |  |  |  |
| Clc1ccc(Cn2cc(CN3c4ccncc4Sc4ncccc43)nn2)cc1 [4d, 10-[(1-(4-Chlorobenzyl)-1H-1,2,3-triazol-4-yl)methyl]-3,6-diazaphenothiazine] | 14.9 µM | 42.1 µM | 54 µM | 13.4 µM | > 100 µM |  |  |  |  |  |  |
| N#Cc1ccc(Cn2cc(CN3c4ccncc4Sc4ncccc43)nn2)cc1 [4e, 10-[(1-(4-Cyanobenzyl)-1H-1,2,3-triazol-4-yl)methyl]-3,6-diazaphenothiazine] | 53.6 µM | 74.3 µM | 42.7 µM | 38.8 µM | > 100 µM |  |  |  |  |  |  |
| c1ccc(SCn2cc(CN3c4ccncc4Sc4ncccc43)nn2)cc1 [4f, 10-[(1-Phenylthiomethyl-1H-1,2,3-triazolo-4-ylo)methyl]-3,6-diazaphenothiazine] | 44.8 µM | 67.5 µM | > 100 µM | 44.3 µM | > 100 µM |  |  |  |  |  |  |
| N.N.[Cl][Pt][Cl] [Cisplatin, reference compound] |  |  |  |  | 63.9 µM |  |  |  | 3.73 µM | 0.6 µM | 3.13 µM |

Source: article PMC6930555, “Design, Synthesis, and Structural Characterization of Novel Diazaphenothiazines with 1,2,3-Triazole Substituents as Promising Antiproliferative Agents” (Molecules, 2019)
